Source: ChEMBL document CHEMBL1147452, “A new approach to the synthesis of optically active alkylated adenine derivatives” (Bioorg Med Chem Lett, 2004)

Legend:
[1] = tested on: Variola virus; test: Inhibitory concentration required against replication of small pox virus (strain India 3a) in Vero cells; assay type: functional, organism-based
[2] = tested on: Vaccinia virus; test: Inhibitory concentration required against vaccinia virus in Vero cell culture; assay type: functional, organism-based; details: Orthopoxvirus vaccinia
[3] = Cytotoxic concentration at which cell viability was reduced by 50%; assay type: functional
[4] = tested on: Cowpox virus; test: Inhibitory concentration required against Cowpox virus in Vero cell culture; assay type: functional, organism-based
[5] = tested on: Monkeypox virus; test: Inhibitory concentration required against Monkeypox virus in Vero cell culture; assay type: functional, organism-based

SMILES: COC(CO)O[C@@H](CO)Cn1cnc2c(N)ncnc21 (some centres undefined)
- IC50 [1]: 62 µM

SMILES: Nc1ncnc2c1ncn2C[C@H](O)C(=O)O
- IC50 [1]: 91 µM

SMILES: Nc1ncnc2c1ncn2C[C@@H](O)CO
- IC50 [2]: > 500 µM
- CC50 [3]: > 500 µM
- IC50 [4]: > 500 µM
- IC50 [5]: > 500 µM

SMILES: Nc1ncnc2c1ncn2C[C@H](O)CO [(S)-DHPA]
- IC50 [2]: 34 µM
- CC50 [3]: > 500 µM
- IC50 [1]: 41 µM
- IC50 [4]: 49 µM
- IC50 [5]: 54 µM

SMILES: Nc1ncnc2c1ncn2C[C@H]1COP(=O)(O)CO1
- IC50 [2]: 41 µM
- CC50 [3]: > 350 µM
- IC50 [4]: 61 µM
- IC50 [5]: 48 µM

SMILES: Nc1ncnc2c1ncn2C[C@@H]1COP(=O)(O)CO1
- IC50 [2]: > 350 µM
- CC50 [3]: > 350 µM
- IC50 [4]: > 350 µM
- IC50 [5]: > 350 µM
